Data reported in US7482347B2, “Piperazine derivatives with CCR-3 inhibiting activity” (priority 2004, dated 2009).
pIC50: −log10 of the molar value.

Molecular target: T1, human CCR-3 (Homo sapiens, UniProt P51677)
T1 construct: expressed in transfected cells; membranes prepared
T1 sequence (P51677 1-355): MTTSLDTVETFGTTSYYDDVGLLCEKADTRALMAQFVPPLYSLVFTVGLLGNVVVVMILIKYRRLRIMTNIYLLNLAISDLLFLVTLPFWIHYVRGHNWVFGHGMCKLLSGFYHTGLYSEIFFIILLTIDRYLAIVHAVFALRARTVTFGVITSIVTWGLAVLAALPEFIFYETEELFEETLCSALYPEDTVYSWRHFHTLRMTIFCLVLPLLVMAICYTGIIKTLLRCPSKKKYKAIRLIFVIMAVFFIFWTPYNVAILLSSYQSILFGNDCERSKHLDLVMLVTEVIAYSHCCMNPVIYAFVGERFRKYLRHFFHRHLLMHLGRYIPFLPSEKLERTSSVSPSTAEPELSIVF
Experiment: [125I]-human eotaxin binding SPA assay on membranes of RBL-2H3 cells stably expressing CCR3
Details: membranes of RBL-2H3 cells expressing CCR3, 50 pM [125I]-human eotaxin, 4 hours at room temperature, read-out: IC50 (inhibition of binding of [125I]-human eotaxin to CCR-3)
Text: Recombinant cells expressing human CCR-3 are captured by wheatgerm agglutinin (WGA) polyvinyltoluidene (PVT) SPA beads (available from Amersham), through a specific interaction between the WGA and carbohydrate residues of glycoproteins on the surface of the cells. [^125I]-human eotaxin (available from Amersham) binds specifically to CCR-3 receptors bringing the [^125I]-human eotaxin in close proximity to the SPA beads. Emitted â-particles from the [^125I]-human eotaxin excite, by its proximity, the fluorophore in the beads and produce light.
Preparation of Assay Buffer: 5.96 g HEPES and 7.0 g sodium chloride are dissolved in distilled water and 1 M aqueous CaCl2 (1 ml) and 1M aqueous MgCl2 (5 ml) are added. The pH is adjusted to 7.6 with NaOH and the solution made to a final volume of 1 l using distilled water. 5 g bovine serum albumin and 0.1 g sodium azide are then dissolved in the solution and the resulting buffer stored at 4° C. A COMPLETE™ protease inhibitor cocktail tablet (available from Boehringer) is added per 50 ml of the buffer on the day of use. […]
The assay is performed in a final volume of 250 μl per well of an OPTIPLATE™ microplate (ex Canberra Packard). […] The resulting scintillations are counted using a Canberra Packard TopCount, each well being counted for 1 minute. […]

| pIC50 | Compound |
| --- | --- |
| 6.59 | Cc1noc(C)c1S(=O)(=O)N1CCC(CN2CCN(Cc3ccc(F)cc3)CC2)CC1 [Example 1, 1-[1-(3,5-Dimethylisoxazole-4-sulfonyl)-piperdin-4-yl-methyl]-4-(4-fluorobenzyl)-piperazine] |
| 7.25 | COc1ccc(OC)c(S(=O)(=O)N2CCC(CN3CCN(Cc4ccc(F)cc4)CC3)CC2)c1 [Example 3, 1-[1-(2,5-dimethoxybenzenesulfonyl)piperidinyl-4-ylmethyl]-4-(4-fluorobenzyl)piperazine] |
